According to PMC12040169 (PLOS Biology, 2025):

Experiment: in vitro
Conditions: human, hela cells, % viability

Structure (SMILES) | viability at 28.5 h, 10 µM [%] | viability at 28.5 h, 10 µM (bulk resorufin, single well) [%]
CCc1n[nH]c(SCc2ccc(Br)cc2)n1 [CBK265221] | 90.9 | 
S=c1n(CN2CCC3(CC2)OCCO3)nc(-c2ccccc2Cl)n1-c1ccccc1 [CBK265222] | 88.4 | 
Nc1cc(O)nc(SCCN2CCN(c3ccc(C(F)(F)F)cc3[N+](=O)[O-])CC2)n1 [CBK265225] | 88.5 | 
O=C(NCc1ccccn1)c1cncc(Br)c1 [CBK265226] | 88.1 | 
CC(C)(C)c1ccc(-c2nc(Nc3cccc(C(=O)O)c3)c3ccccc3n2)cc1 [CBK265229C] | 96.6 | 
CN1CCN(C(=S)SCc2nc(N)nc(Nc3ccc(F)cc3)n2)CC1 [CBK265230] | 81.4 | 
Cc1ccc(S(=O)(=O)NCc2c(-c3ccccc3)c3cc(Br)ccc3[nH]c2=O)cc1 [CBK265231] | 98.3 | 
COc1ccc(Nc2nc(N)nc(CSC(=S)N3CCN(C)CC3)n2)cc1 [CBK265232] | 90.8 | 
COc1cccc(CCNC2CC(=O)N(c3ccc(NC(C)=O)cc3)C2=O)c1 (stereo not shown) [CBK265233] | 109 | 
Cc1ccc(S(=O)(=O)NC2=NCN(CCOC(=O)c3ccc([N+](=O)[O-])cc3)CN2)cc1 [CBK265235] | 92.8 | 
CC(=O)Nc1ccc(N2C(=O)CC(NCCCN3CCOCC3)C2=O)cc1 (stereo not shown) [CBK265236] | 115 | 
CC(CN1CCCCC1)OC(=O)C(c1ccccc1)c1ccccc1 (stereo not shown) [CBK265237C] | 104 | 
Cc1ccc(CSCc2nc3ccccc3[nH]2)cc1 [CBK265238] | 90 | 
O=C(/C=C/c1ccc2c(c1)OCO2)NCCSCc1c(F)cccc1Cl [CBK265239] | 90.3 | 
Cc1ccc2nc3c(cc(C(=O)NC4CCCC4)c(=N)n3Cc3ccco3)c(=O)n2c1 [CBK265242] | 81 | 
Cc1ccc(/C=N/n2c(S)nnc2COc2ccccc2)o1 [CBK265244] | 110 | 
Cc1ccc(N(CC(=O)Nc2ccccc2C(N)=O)S(=O)(=O)c2ccccc2)cc1C [CBK265246] | 94.4 | 
O=C(O)C(CCCCN1C(=O)c2ccccc2C1=O)N1C(=O)c2ccccc2C1=O (stereo not shown) [CBK265250] | 91.7 | 
CC1=NN(c2ccccc2)C(=O)/C1=C\c1cn(CCC(=O)O)nc1-c1cc2ccccc2o1 [CBK265252] | 88.1 | 
COc1ccccc1NC(=O)CN(c1ccc(Br)cc1)S(C)(=O)=O [CBK265254] | 99.3 | 
O=C(CC1(O)C(=O)N(Cc2ccccc2Cl)c2ccccc21)c1cc2ccccc2oc1=O (stereo not shown) [CBK265255] | 96.2 | 

Structure (SMILES) | viability at 28.5 h, 10 µM [%] | viability at 28.5 h, 10 µM (bulk resorufin, single well) [%]
COc1ccc(/C=C(/C(=O)NCc2ccc(Cl)cc2Cl)c2ccccc2)cc1 [CBK265256] | 89.9 | 
O=C(O)/C=C\c1cn(-c2ccccc2)nc1-c1cc2ccccc2o1 [CBK265257] | 92.7 | 
COc1ccc(N(CC(=O)N2CCN(Cc3ccc4c(c3)OCO4)CC2)S(C)(=O)=O)cc1Cl [CBK265258] | 84.3 | 
COC(=O)CN1C(=O)S/C(=C/c2ccc(OCc3cccc(C(=O)O)c3)c(Cl)c2)C1=O [CBK265262] | 90.2 | 
NC(=O)c1ccccc1NC(=O)CN(c1cccc(Br)c1)S(=O)(=O)c1ccccc1 [CBK265263] | 92.1 | 
OCCCNC(=S)Nc1ccc(Cl)cc1Cl [CBK265264] | 96.6 | 
O=C(O)C1CCN(S(=O)(=O)c2ccccc2[N+](=O)[O-])CC1 [CBK265267] | 98.6 | 
Sc1nnc(COc2ccccc2)n1/N=C/c1ccc(-c2ccccc2)cc1 [CBK265269] | 117 | 
CCN1C(=O)/C(=C\c2ccc(-c3cccc(C(=O)O)c3C)o2)C(=O)N(c2ccc(Cl)cc2)C1=S [CBK265270] |  | 99.9
O=c1c2c(n3c(S)nnc3n1Cc1ccco1)-c1ccccc1CC21CCCCC1 [CBK265271] | 94.7 | 
Sc1nnc(-c2ccncc2)n1/N=C/c1c[nH]c2ccccc12 [CBK265272] | 85.8 | 
O=C(/C=C\c1cn(-c2ccccc2)nc1-c1cccc([N+](=O)[O-])c1)n1nnc2ccccc21 [CBK265273] | 104 | 
Cc1ccc(NC(=O)c2cc(N3C(=O)c4ccc(C(=O)O)cc4C3=O)ccc2N2CCCCC2)cc1 [CBK265274] | 99.9 | 
O=C(CCC(=O)OCN1C(=O)c2ccccc2C1=O)Nc1ccc2ccccc2c1 [CBK265277] | 108 | 
Sc1nnc(COc2ccccc2)n1/N=C/c1ccccn1 [CBK265279] | 102 | 
CN1CCN(c2cc(N3CCN(C(=O)c4ccc(F)cc4F)CC3)c([N+](=O)[O-])cc2F)CC1 [CBK265280] | 95.1 | 
COc1cccc(/C=C2/NC(=O)N(Cc3ccc(F)cc3)C2=O)c1OCc1cccc(C(=O)O)c1 [CBK265282] | 89.1 | 
COc1ccc(-c2oc3ncn4nc(COc5ccccc5C)nc4c3c2-c2ccc(OC)cc2)cc1 [CBK265283] | 94.8 | 
Cc1cccc(OCc2nc3c4c5c(sc4ncn3n2)CCCCC5)c1C [CBK265284] | 104 | 
O=C(Oc1ccc2c(c1)C1C=CCC1C(C(=O)O)N2)c1ccc(Cl)cc1Cl (stereo not shown) [CBK265285] | 94.2 | 
Cc1nc2c(oc3nc(-c4ccoc4)c4c(c32)CC(C)(C)OC4)c(-c2ccccc2)c1C(=O)O [CBK265286] | 109 | 

Structure (SMILES) | viability at 28.5 h, 10 µM [%] | viability at 28.5 h, 10 µM (bulk resorufin, single well) [%]
CSc1nc(O)c(C(c2ccc(C(=O)O)cc2)c2c(O)nc(SC)nc2O)c(O)n1 [CBK265288] | 94.8 | 
Cc1[nH]c2ccccc2c1/C=C1/C(=N)N2C(SCc3ccccc3)=NSC2=NC1=O [CBK265291] | 90 | 
O=C(Cc1ccccc1[N+](=O)[O-])Nc1ccc(S(=O)(=O)N2CCCC2)cc1 [CBK265292] | 87.1 | 
O=C(O)CCn1cc(C=C2C(=O)NC(=S)NC2=O)c(-c2cc3ccccc3oc2=O)n1 [CBK265293] |  | 91.8
CCOC(=O)c1c(-c2cccs2)csc1NC(=O)CN1CCCCCC1 [CBK265294G] | 106 | 
Cc1cc(C)c(C)c(S(=O)(=O)N2CCN(c3ncnc4sc(C)c(C)c34)CC2)c1C [CBK265297] | 90.2 | 
c1ccc(-c2c(-c3ccccc3)n(Cc3ccco3)c3ncn4nc(-c5ccncc5)nc4c23)cc1 [CBK265298] | 89.6 | 
CC(C)C(=O)NC(c1ccc(C(C)C)cc1)c1cc([N+](=O)[O-])c2cccnc2c1O (stereo not shown) [CBK265303] | 103 | 
Cc1ccc(S(=O)(=O)Oc2ccc(C(c3c(C)n[nH]c3O)c3c(C)n[nH]c3O)cc2)cc1 [CBK265305] | 104 | 
COc1cc(/C=N/n2c(S)nnc2-c2cccnc2)ccc1OCc1ccccc1 [CBK265307] | 110 | 
Sc1nnc(COc2ccccc2)n1/N=C/c1cccnc1 [CBK265308] | 103 | 
Cc1ccc2nc(-c3ccc(N4C(=O)CC(N5CCC(N6CCCCC6)CC5)C4=O)cc3)sc2c1 (stereo not shown) [CBK265315] | 114 | 
CN(C)CCCNC(=S)NC(=O)c1ccccc1 [CBK265317] | 117 | 
COc1ccc(-c2nn(CCC(=O)O)cc2/C=C2\SC(=S)NC2=O)cc1OC [CBK265318] | 108 | 
CCOC(=O)c1c(NC(=O)CCN2CCCCC2)sc2c1CCCCC2 [CBK265319G] | 89.9 | 
COc1cc(/C=N/n2c(S)nnc2C(F)(F)F)cc(Br)c1O [CBK265321] | 74.2 | 
CCc1ccc(N(CC(=O)NCc2ccccn2)S(C)(=O)=O)cc1 [CBK265322] | 98.8 | 
Cc1ccc(NC(=O)c2cc(NC(=O)C3CC=CCC3C(=O)O)ccc2N2CCOCC2)cc1Cl (stereo not shown) [CBK265323] | 105 | 
CC(CN1CCCCC1)OC(=O)COc1ccc(Br)cc1 (stereo not shown) [CBK265326C] | 96.9 | 
CS(=O)(=O)N(Cc1ccc(Cl)cc1)c1ccc(C(=O)N2CCC(C(N)=O)CC2)cc1 [CBK265327] | 89.7 | 
O=S1(=O)C=C(SCCN2CCCCC2)c2ccccc21 [CBK265328] | 92.6 | 

Structure (SMILES) | viability at 28.5 h, 10 µM [%] | viability at 28.5 h, 10 µM (bulk resorufin, single well) [%]
CS(=O)(=O)N(CC(=O)N1CCN(Cc2ccc3c(c2)OCO3)CC1)c1cccc(C(F)(F)F)c1 [CBK265329] | 77.7 | 
O=C(NC(/C=C/c1ccccc1)c1cc([N+](=O)[O-])c2cccnc2c1O)C1CCCCC1 (stereo not shown) [CBK265333] | 93 | 
Cc1nc(Nc2c(Cl)cc(S(N)(=O)=O)cc2Cl)sc1C(=O)Nc1ccccc1 [CBK265335] | 106 | 
Sc1nnc(-c2ccncc2)n1/N=C/c1cccnc1 [CBK265336] | 96.6 | 
Cc1ccc(S(=O)(=O)N(CC(=O)NCC2CCCO2)c2cccc(C)c2C)cc1 (stereo not shown) [CBK265339] | 72.7 | 
O=C(NCCSCc1c(F)cccc1Cl)Nc1ccccc1 [CBK265340] | 90.2 | 
COc1ccc(CCNC(=O)CC2Sc3ccc(C(F)(F)F)cc3NC2=O)cc1OC (stereo not shown) [CBK265341] | 91.7 | 
O=C(CN(Cc1ccc(F)cc1)S(=O)(=O)c1ccc(Cl)cc1)Nc1ccc2c(c1)OCCO2 [CBK265346] | 90.2 | 
CN(C)CCNc1ncnc2sc3c(c12)CCC3 [CBK265347] | 69.5 | 
COc1cc(/C=C2\NC(=O)N(Cc3ccc([N+](=O)[O-])cc3)C2=O)ccc1OC(C)C(=O)O (stereo not shown) [CBK265348] | 107 | 
O=C(O)CC(NC(=O)OCc1ccccc1)c1ccccc1 (stereo not shown) [CBK265351] | 107 | 
CC(C)(C)c1ccc(OCC(=O)Nc2ccc(S(=O)(=O)N3CCc4ccccc43)cc2)cc1 [CBK265352] | 100 | 
O=C(CN(c1cccc(Cl)c1)S(=O)(=O)c1ccc(Cl)cc1)NCc1ccco1 [CBK265356] | 106 | 
CC(=O)Nc1ccc(S(=O)(=O)Oc2ccc(/C=C3\SC(=N)NC3=O)cc2Cl)cc1 [CBK265357] | 100 | 
c1ccc(Cn2c(-c3ccccc3)c(-c3ccccc3)c3c2ncn2nc(-c4cccnc4)nc32)cc1 [CBK265359] | 109 | 
Sc1nnc(COc2ccccc2)n1/N=C/c1ccncc1 [CBK265360] | 100 | 
Cc1ccc2nc(-c3ccc(N4C(=O)CC(N5CCN(CCOCCO)CC5)C4=O)cc3)sc2c1 (stereo not shown) [CBK265362] | 86.1 | 
O=C(CN1CCN(CCN2C(=O)c3cccc4cccc(c34)C2=O)CC1)c1ccc(Cl)cc1 [CBK265363] | 78.1 | 
COC(=O)Nc1ccc(S(=O)(=O)N2CCCC(C(=O)O)C2)cc1 (stereo not shown) [CBK265364] | 98.5 | 
